Test systems include Micrococcus luteus; Staphylococcus aureus; Bacillus subtilis 168.
What all share (experiment): ≥ marks a high value that may be exact or a test limit, other limits are often not marked, values filed in µg/mL are converted to µM
Experiment [1] relates to Escherichia coli ATCC 25922.
In experiment [2] the test system is Bacillus subtilis ATCC 23857.
The test system of experiment [3] is Pseudomonas aeruginosa ATCC 9027.
Experiment [4] relates to Klebsiella pneumoniae ATCC 700603.
For experiment [5], the system named is Staphylococcus aureus ATCC 25923.
The test system of experiment [6] is Staphylococcus epidermidis ATCC 12228.
The test system of experiment [7] is Staphylococcus aureus ATCC 29213.
Experiment [8] has as its system Acinetobacter baumannii ATCC 19606.
Experiment [9] has as its system Enterococcus faecalis ATCC 29212.
In experiment [10] the test system is Pseudomonas aeruginosa ATCC 27853.
Experiment [11] deals with Candida albicans ATCC 2002.
The test system of experiment [12] is Pseudomonas aeruginosa CMCCB 10104.

Experimental findings from DBAASP are described below.

The structures appear in SMILES notation. In brackets after ≈: the same amount, converted by molar mass.

On to `CC[C@H](C)[C@H](NC(=O)CN)C(=O)N[C@@H](C)C(=O)N[C@@H](C)C(=O)NCC(=O)N[C@H](C(=O)N[C@H](C(=O)N[C@H](C(=O)N[C@@H](CCCCN)C(=O)N[C@H](C(=O)N[C@@H](CCCCN)C(=O)N[C@@H](CCCCN)C(N)=O)[C@@H](C)CC)[C@@H](C)CC)[C@@H](C)CC)[C@@H](C)CC` [GIAAGIIIKIKK], for which the MIC in [1] was 32 µM (≈ 39.2 µg/mL); in experiment [2] it was at least 32 µM.
Compound `CC[C@H](C)[C@H](NC(=O)CNC(=O)[C@H](CO)NC(=O)[C@@H](NC(=O)[C@H](CC(C)C)NC(=O)[C@H](CCC(=O)O)NC(=O)[C@H](CO)NC(=O)[C@H](C)NC(=O)[C@H](CCCCN)NC(=O)[C@H](CC(=O)O)NC(=O)[C@H](CCCCN)NC(=O)[C@@H](NC(=O)[C@H](CCCCN)NC(=O)[C@H](CCC(N)=O)NC(=O)[C@H](Cc1c[nH]c2ccccc12)NC(=O)[C@H](CC(C)C)NC(=O)CN)[C@@H](C)CC)C(C)C)C(=O)N[C@H](C(=O)N[C@@H](CCC(=O)O)C(=O)NCC(=O)N[C@H](C(=O)N[C@@H](CCCCN)C(N)=O)C(C)C)C(C)C` [GLWQKIKDKASELVSGIVEGVK] came in with an MIC in the experiment with Micrococcus luteus of 0.168 µM (≈ 0.4 µg/mL).
In the case of `CC[C@H](C)[C@H](NC(=O)[C@H](C)NC(=O)[C@H](CCCCN)NC(=O)[C@H](C)NC(=O)[C@@H](NC(=O)[C@H](C)NC(=O)[C@H](CC(C)C)NC(=O)[C@H](CC(C)C)NC(=O)[C@H](C)NC(=O)[C@H](CCCCN)NC(=O)[C@H](CC(C)C)NC(=O)[C@H](CC(N)=O)NC(=O)[C@@H](N)CC(C)C)C(C)C)C(=O)N[C@@H](CC(C)C)C(N)=O` [LNLKALLAVAKAIL], the MIC in [3] was 16 µM (≈ 23.2 µg/mL); in experiment [4], 16 µM (≈ 23.2 µg/mL); in experiment [5] it was 4 µM (≈ 5.8 µg/mL); in experiment [1], 8 µM (≈ 11.6 µg/mL); in experiment [2] it was 8 µM (≈ 11.6 µg/mL).
On to `CC[C@H](C)[C@H](N)C(=O)N[C@@H](CC(=O)O)C(=O)N[C@@H](Cc1c[nH]c2ccccc12)C(=O)N[C@@H](CCCCN)C(=O)N[C@@H](CCCCN)C(=O)N[C@@H](CC(C)C)C(=O)N1CCC[C@H]1C(=O)N[C@@H](CC(=O)O)C(=O)N[C@@H](C)C(=O)N[C@@H](C)C(=O)N[C@@H](CCCCN)C(=O)N[C@@H](CCC(N)=O)C(=O)N[C@H](C(=O)N[C@@H](CC(C)C)C(N)=O)[C@@H](C)CC` [IDWKKLPDAAKQIL], for which the MIC is above 1020 µM in experiment [6], 1020 µM (≈ 1680 µg/mL) in experiment [1], above 1020 µM in experiment [7] and at least 512 µM in [2].
Regarding `CC(C)C[C@H](NC(=O)[C@H](CC(C)C)NC(=O)[C@@H](NC(=O)[C@H](CCCCN)NC(=O)[C@H](Cc1ccccc1)NC(=O)[C@H](CCCN=C(N)N)NC(=O)[C@H](CCCCN)NC(=O)[C@H](CC(C)C)NC(=O)[C@H](CC(C)C)NC(=O)CN)[C@@H](C)O)C(N)=O` [GLLKRFKTLL], the MIC worked out at 16 µM (≈ 19 µg/mL) in [6]; 128 µM (≈ 152 µg/mL) in experiment [4]; 256 µM (≈ 304 µg/mL) in [8]; 256 µM (≈ 304 µg/mL) in experiment [9]; 128 µM (≈ 152 µg/mL) in experiment [5]; 64 µM (≈ 76 µg/mL) in experiment [1]. Further, the results for the MIC in experiment [10] and in experiment [2] were 16 µM (≈ 19 µg/mL) and at least 32 µM, respectively.
On to `CSCC[C@H](NC(=O)[C@H](C)NC(=O)[C@H](CCCCN)NC(=O)[C@H](CCCN=C(N)N)NC(=O)[C@H](C)NC(=O)[C@H](CCCN=C(N)N)NC(=O)[C@H](CCC(=O)O)NC(=O)[C@@H](NC(=O)[C@H](CCCCN)NC(=O)CNC(=O)CNC(=O)CNC(=O)[C@H](Cc1ccccc1)NC(=O)[C@H](CCCCN)NC(=O)[C@@H](N)CCCCN)[C@@H](C)O)C(=O)N[C@@H](C)C(=O)N[C@H](C(=O)N[C@@H](CCC(=O)O)C(=O)O)C(C)C` [KKFGGGKTERARKAMAVE], for which the minimal inhibitory concentration (MIC) against Staphylococcus aureus is 7.94 µM (≈ 15.6 µg/mL); against Bacillus subtilis 168, 7.94 µM (≈ 15.6 µg/mL); against Micrococcus luteus it was 31.8 µM (≈ 62.5 µg/mL); in [1], 31.8 µM (≈ 62.5 µg/mL).
As to `CC[C@H](C)[C@H](NC(=O)CN)C(=O)N[C@H](C(=O)N[C@@H](C)C(=O)N[C@@H](C)C(=O)N[C@H](C(=O)N[C@H](C(=O)N[C@H](C(=O)N[C@@H](CCCCN)C(=O)N[C@H](C(=O)N[C@@H](CCCCN)C(=O)N[C@@H](CCCCN)C(N)=O)[C@@H](C)CC)[C@@H](C)CC)[C@@H](C)CC)[C@@H](C)CC)[C@@H](C)CC` [GIIAAIIIKIKK], the values for the MIC in experiment [1] and in [2] were above 128 µM and 16 µM (≈ 20.5 µg/mL), respectively.
On to `CC[C@H](C)[C@H](NC(=O)[C@H](C)NC(=O)[C@H](CC(C)C)NC(=O)[C@H](CCC(=O)O)NC(=O)[C@H](CCCCN)NC(=O)[C@H](Cc1ccccc1)NC(=O)[C@@H](NC(=O)[C@H](CO)NC(=O)[C@H](CC(C)C)NC(=O)[C@H](Cc1ccccc1)NC(=O)[C@@H](N)CO)[C@@H](C)O)C(=O)N[C@@H](CC(N)=O)C(=O)N[C@@H](C)C(=O)N[C@@H](C)C(=O)N[C@@H](CCCCN)C(=O)N[C@@H](CC(N)=O)C(=O)N[C@@H](C)C(=O)NCC(=O)N[C@@H](CCC(N)=O)C(=O)N[C@@H](CO)C(=O)N[C@@H](CC(C)C)C(=O)N[C@@H](CC(C)C)C(=O)N[C@@H](Cc1cnc[nH]1)C(=O)N[C@H](C(=O)N[C@@H](CC(C)C)C(=O)N[C@@H](CO)C(=O)N[C@H]1CSSC[C@@H](C(=O)O)NC(=O)[C@H]([C@@H](C)O)NC(=O)[C@H](CCCCN)NC(=O)[C@H](CC(=O)O)NC(=O)[C@H](CC(C)C)NC(=O)[C@H](CCCCN)NC1=O)[C@@H](C)O` [SFLSTFKELAINAAKNAGQSLLHTLSCKLDKTC], for which the MIC in experiment [11] worked out at 4.45 µM (≈ 15.8 µg/mL); in [12], 2.22 µM (≈ 7.9 µg/mL); in experiment [5] it was 2.22 µM (≈ 7.9 µg/mL); in [1] it was 4.45 µM (≈ 15.8 µg/mL).
Turning to `CC(C)C[C@H](NC(=O)CNC(=O)[C@@H]1CCCN1C(=O)[C@H](CC(C)C)NC(=O)[C@@H](N)Cc1ccccc1)C(=O)N[C@@H](CCC(=O)O)C(=O)N[C@@H](CS)C(=O)N[C@H](C(=O)N[C@@H](Cc1c[nH]c2ccccc12)C(=O)O)C(C)C` [FLPGLECVW], the MIC was at least 188 µM in experiment [11], at least 188 µM in [12], above 188 µM in [5] and above 188 µM in experiment [1].
As to `CC(C)C[C@H](NC(=O)[C@H](CCC(=O)O)NC(=O)[C@@H]1CCCN1C(=O)[C@H](CCC(=O)O)NC(=O)[C@@H](NC(=O)[C@H](C)NC(=O)[C@H](C)NC(=O)[C@@H](N)CC(=O)O)C(C)C)C(=O)N[C@@H](Cc1ccc(O)cc1)C(=O)N[C@@H](Cc1cnc[nH]1)C(=O)N[C@@H](Cc1c[nH]c2ccccc12)C(=O)NCC(=O)N[C@@H](CCCCN)C(=O)N[C@H](C(=O)N[C@@H](Cc1c[nH]c2ccccc12)C(=O)N[C@@H](CC(C)C)C(=O)N1CCC[C@H]1C(=O)N[C@@H](CC(N)=O)C(=O)O)C(C)C` [DAAVEPELYHWGKVWLPN], the MIC is at least 94.1 µM in [11], at least 94.1 µM in experiment [12], above 94.1 µM in experiment [5] and above 94.1 µM in [1].
Consider `CC[C@H](C)[C@H](NC(=O)CN)C(=O)N[C@@H](Cc1ccccc1)C(=O)NCC(=O)N[C@@H](CCCCN)C(=O)N[C@H](C(=O)N[C@@H](CC(C)C)C(=O)NCC(=O)N[C@H](C(=O)NCC(=O)N[C@@H](CCCCN)C(=O)N[C@@H](CCCCN)C(=O)N[C@H](C(=O)N[C@@H](CC(C)C)C(=O)N[C@H]1CSSC[C@@H](C(=O)O)NC(=O)[C@H](CCSC)NC(=O)CNC(=O)[C@H](CO)NC(=O)[C@H](CC(C)C)NC(=O)[C@H](CCC(=O)O)NC1=O)[C@@H](C)O)C(C)C)[C@@H](C)CC` [GIFGKILGVGKKTLCELSGMC], for which the MIC in experiment [11] came to 1.49 µM (≈ 3.2 µg/mL); in [12], 2.92 µM (≈ 6.29 µg/mL); in [5], 2.92 µM (≈ 6.29 µg/mL); in experiment [1], 2.92 µM (≈ 6.29 µg/mL).
In the case of `CC[C@H](C)[C@H](N)C(=O)N[C@@H](CC(=O)O)C(=O)N[C@@H](Cc1c[nH]c2ccccc12)C(=O)N[C@@H](CCCCN)C(=O)N[C@@H](CCCCN)C(=O)N[C@@H](CC(C)C)C(=O)N[C@@H](CC(C)C)C(=O)N1CCC[C@H]1C(=O)N[C@@H](C)C(=O)N[C@@H](C)C(=O)N[C@@H](CCCCN)C(=O)N[C@@H](CCC(N)=O)C(=O)N[C@H](C(=O)N[C@@H](CC(C)C)C(N)=O)[C@@H](C)CC` [IDWKKLLPAAKQIL], the MIC in experiment [6] was 256 µM (≈ 419 µg/mL); in experiment [1], 128 µM (≈ 209 µg/mL); in [7] it was 512 µM (≈ 838 µg/mL); in experiment [2], at least 32 µM.
